US20250313575A1, “MACROCYCLES AS LRRK2 INHIBITORS, PHARMACEUTICAL COMPOSITIONS, AND USES THEREOF” (Merck Sharp & Dohme LLC, priority 2022, published 2025)

What follows are compounds tested against GST-tagged truncated human mutant G2019S LRRK2 (Homo sapiens (Human), UniProt Q5S007, G2019S) (assay: LRRK2 G2019S Km ATP LanthaScreen assay). Conditions: G2019S LRRK2, 134 μM ATP (Km ATP), LRRKtide substrate.
Type: biochemical
In short: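 Ten-point compound series (highest 9.99 μM in DMSO) preincubated 15 min with 1.25 nM GST-tagged truncated human LRRK2 G2019S, then 90 min reaction at ambient temperature with 134 μM ATP (Km) and fluorescein-labelled LRRKtide, pH 8.5. Phosphorylation read as 520/495 nm emission ratio via Tb-labelled antibody; IC50 from 4P logistic regression.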

GST-tagged truncated human mutant G2019S LRRK2, sequence (Q5S007 970-2527 G2019S): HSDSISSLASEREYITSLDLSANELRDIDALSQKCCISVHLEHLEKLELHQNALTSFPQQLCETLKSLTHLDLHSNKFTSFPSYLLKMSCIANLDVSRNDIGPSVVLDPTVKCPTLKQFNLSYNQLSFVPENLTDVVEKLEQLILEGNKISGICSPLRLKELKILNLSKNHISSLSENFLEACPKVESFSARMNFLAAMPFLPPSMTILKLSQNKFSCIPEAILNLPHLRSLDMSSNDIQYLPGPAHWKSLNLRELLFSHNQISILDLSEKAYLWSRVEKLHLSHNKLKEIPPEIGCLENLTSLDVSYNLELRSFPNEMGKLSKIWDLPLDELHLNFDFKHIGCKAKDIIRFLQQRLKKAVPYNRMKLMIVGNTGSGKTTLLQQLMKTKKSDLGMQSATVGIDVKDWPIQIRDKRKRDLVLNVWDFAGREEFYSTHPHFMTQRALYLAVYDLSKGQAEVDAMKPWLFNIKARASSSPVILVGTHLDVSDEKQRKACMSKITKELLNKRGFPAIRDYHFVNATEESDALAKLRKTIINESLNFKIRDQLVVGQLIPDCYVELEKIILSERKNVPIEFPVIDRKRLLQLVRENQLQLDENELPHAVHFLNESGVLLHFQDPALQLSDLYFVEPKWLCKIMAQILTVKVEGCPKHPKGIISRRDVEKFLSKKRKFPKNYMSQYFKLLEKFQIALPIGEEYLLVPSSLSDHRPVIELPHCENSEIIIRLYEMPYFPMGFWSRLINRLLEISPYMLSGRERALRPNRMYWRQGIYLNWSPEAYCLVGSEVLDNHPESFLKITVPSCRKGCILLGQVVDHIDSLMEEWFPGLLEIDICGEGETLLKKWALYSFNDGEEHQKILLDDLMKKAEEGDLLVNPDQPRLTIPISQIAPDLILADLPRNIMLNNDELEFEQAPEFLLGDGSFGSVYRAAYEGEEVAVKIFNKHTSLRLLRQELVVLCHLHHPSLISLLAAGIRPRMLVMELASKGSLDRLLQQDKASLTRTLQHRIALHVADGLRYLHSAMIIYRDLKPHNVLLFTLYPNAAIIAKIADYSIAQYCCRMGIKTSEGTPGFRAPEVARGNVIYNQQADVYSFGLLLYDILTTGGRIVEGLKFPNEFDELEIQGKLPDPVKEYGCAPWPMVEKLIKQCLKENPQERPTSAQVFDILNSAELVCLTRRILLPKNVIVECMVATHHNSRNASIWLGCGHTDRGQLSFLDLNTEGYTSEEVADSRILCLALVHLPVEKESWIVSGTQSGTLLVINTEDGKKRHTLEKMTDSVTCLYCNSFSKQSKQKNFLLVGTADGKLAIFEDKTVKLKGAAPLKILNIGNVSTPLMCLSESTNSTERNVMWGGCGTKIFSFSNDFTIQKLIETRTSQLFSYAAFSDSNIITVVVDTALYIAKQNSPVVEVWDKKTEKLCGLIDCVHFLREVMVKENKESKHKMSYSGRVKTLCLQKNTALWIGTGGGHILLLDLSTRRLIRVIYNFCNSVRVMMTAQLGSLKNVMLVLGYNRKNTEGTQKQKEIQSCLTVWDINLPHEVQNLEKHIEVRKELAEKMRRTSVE

For `Cc1nn2c(c1C)Nc1ncc(C(F)(F)F)c(n1)N[C@@H](C)CCC2` (single isomer, unassigned) [Ex-16.1, 8,14,15-Trimethyl-5-(trifluoromethyl)-8,9,10,11-tetrahydro-1H,7H-2,6-(azeno)pyrazolo[1,5-a][1,3,5,9]tetraazacyclotridecine], which “LRRK2 pIC50” value is on record?
The value was 7.70.

How did the “LRRK2 pIC50” value turn out when `CC(C)(C#N)n1nc(C2CC2)c2c1OC[C@@H]1CC[C@H]1Nc1nc(ncc1C(F)(F)F)N2` [Ex-1.17, 2-((10aR,12aR)-3-cyclopropyl-8-(trifluoromethyl)-10,10a,11,12,12a,13-hexahydro-5,9-(azeno)cyclobuta[k]pyrazolo[3,4-b][1]oxa[4,6,10]triazacyclotridecin-1(4H)-yl)-2-methylpropanenitrile] was run?
The value was over 10.09.

With `CC(C)n1nc(C2C[C@@H]2C#N)c2c1Nc1ncc(C(F)(F)F)c(n1)N[C@@H]1COC[C@H]1CO2` (single isomer, unassigned) [Ex-2.45, (1S,2S)- or (1R,2R)-2-((10aS,13aS)-3-isopropyl-8-(trifluoromethyl)-3,4,10a,11,13a,14-hexahydro-10H,13H-5,9-(azeno)furo[3,4-k]pyrazolo[4,3-b][1]oxa[4,6,10]triazacyclotridecin-1-yl)cyclopropane-1-carbonitrile] as the compound, how does the “LRRK2 pIC50” value read?
Its value is 8.32.

Which “LRRK2 pIC50” value does the source give for `COC1CCC1n1nc(C)c2c1Nc1ncc(C(F)(F)F)c(n1)NC1COCC1CO2` [Ex-2.37, (10aS,13aS)-3-((1R,2R)-(10aS,13aS)-3-((1S,2R)-(10aS,13aS)-3-((1R,2S)-(10aS,13aS)-3-((1R,2R)-(10aR,13aR)-3-((1S,2R)-(10aR,13aR)-3-((1R,2S)-2-methoxycyclobutyl)-1-methyl-8-(trifluoromethyl)-3,4,10a,11,13a,14-hexahydro-10H,13H-5,9-(azeno)furo[3,4-k]pyrazolo[4,3-b][1]oxa[4,6,10]triazacyclotridecine] here?
Its value is 6.00.

`CC(C)n1nc(C2C[C@@H]2C#N)c2c1Nc1ncc(C(F)(F)F)c(n1)N[C@@H]1COC[C@H]1CO2` (single isomer, unassigned) [Ex-2.44, (1S,2S)- or (1R,2R)-2-((10aS,13aS)-3-isopropyl-8-(trifluoromethyl)-3,4,10a,11,13a,14-hexahydro-10H,13H-5,9-(azeno)furo[3,4-k]pyrazolo[4,3-b][1]oxa[4,6,10]triazacyclotridecin-1-yl)cyclopropane-1-carbonitrile] was tested. Which “LRRK2 pIC50” value did it give?
The value was 8.80.

`Cc1nn(C2CCC2)c2c1OCCC(C)Nc1nc(ncc1C(F)(F)F)N2` (single isomer, unassigned) [Ex-2.7, (R)- or (S)-1-cyclobutyl-3,7-dimethyl-10-(trifluoromethyl)-1,5,6,7,8,14-hexahydro-9,13-(azeno)pyrazolo[4,3-b][1]oxa[4,6,10]triazacyclotridecine] was tested. Which “LRRK2 pIC50” value did it give?
Its value is 7.21.

With `Cc1nn(C(C)C)c2c1OC[C@@H]1CC[C@H]1Nc1cc(ncc1Cl)N2` [Ex-13.4, (10aR,12aR)-8-chloro-3-isopropyl-1-methyl-3,4,10,10a,11,12,12a,13-octahydro-5,9-(metheno)cyclobuta[k]pyrazolo[4,3-b][1]oxa[4,6,10]triazacyclotridecine] as the compound, how does the “LRRK2 pIC50” value read?
Its value is 9.61.

For `Cc1nn(C)c2c1OCC1(CNc3nc(ncc3C(F)(F)F)N2)CC12CCOCC2` (single isomer, unassigned) [Ex-2.16, (R)- or (S)-1″,3″-dimethyl-10″- (trifluoromethyl)-1″,2,3,5,6,7″,8″,14″. octahydro-5″H-dispiro[pyran-4,1′-cyclopropane-2′,6″- [9,13](azeno)pyrazolo[4,3-b][1]oxa[4,6,10]triazacyclotridecine]], which “LRRK2 pIC50” value is on record?
The value was 7.93.

How did the “LRRK2 pIC50” value turn out when `COC(=O)c1nn(C2CCC2)c2c1OC[C@@H]1COC[C@H]1Nc1nc(ncc1C(F)(F)F)N2` [Ex-5.6, methyl (10aS,13aS)-3-cyclobutyl-8-(trifluoromethyl)-3,4,10a,11,13a,14-hexahydro-10H,13H-5,9-(azeno)furo[3,4-k]pyrazolo[4,3-b][1]oxa[4,6,10]triazacyclotridecine-1-carboxylate] was run?
The value was 9.80.
